Where a name gives a salt, the structure may show the parent alone. Read-outs that look alike come from different tables or passages of the source.
Key:
Format in all cases: biochemical
[1] = molecular target: T1, recombinant human DAO (diamine oxidase) (Homo sapiens, UniProt P19801); experiment: Activity evaluation on recombinant human DAO (Amplex Red/HRP-coupled assay, 1 mM putrescine substrate); conditions: read-out: Inhibitory Activity (IC50, nM) DAO
T1 construct: purchased R&D systems
T1 sequence (P19801 20-751): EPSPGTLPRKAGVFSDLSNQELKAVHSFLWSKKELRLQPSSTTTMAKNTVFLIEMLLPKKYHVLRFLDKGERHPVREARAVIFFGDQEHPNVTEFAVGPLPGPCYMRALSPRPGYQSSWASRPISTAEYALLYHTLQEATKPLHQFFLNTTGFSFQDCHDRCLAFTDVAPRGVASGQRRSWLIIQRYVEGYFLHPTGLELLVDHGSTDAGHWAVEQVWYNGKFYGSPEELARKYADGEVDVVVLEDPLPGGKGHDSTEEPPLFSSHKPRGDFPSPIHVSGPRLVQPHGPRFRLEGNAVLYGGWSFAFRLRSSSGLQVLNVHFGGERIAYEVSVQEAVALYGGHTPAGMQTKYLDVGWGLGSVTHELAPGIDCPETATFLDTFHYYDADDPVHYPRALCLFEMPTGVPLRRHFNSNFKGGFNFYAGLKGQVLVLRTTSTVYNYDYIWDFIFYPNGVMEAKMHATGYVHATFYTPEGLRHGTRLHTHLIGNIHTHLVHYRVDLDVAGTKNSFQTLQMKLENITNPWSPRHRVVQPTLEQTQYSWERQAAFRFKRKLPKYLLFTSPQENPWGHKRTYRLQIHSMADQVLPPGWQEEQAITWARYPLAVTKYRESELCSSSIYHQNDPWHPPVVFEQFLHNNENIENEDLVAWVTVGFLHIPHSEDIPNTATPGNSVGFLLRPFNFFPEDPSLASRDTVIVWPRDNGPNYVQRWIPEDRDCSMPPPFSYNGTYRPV
Method in brief: (§1)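 8-pt 1:3 dilution series, final DMSO <1%; 30 min 37 °C preincubation w/ enzyme, 50 mM Na phosphate pH 7.4; + 200 uM Amplex Red, 1 U/mL HRP, substrate (MAO-A tyramine 0.5 mM; MAO-B benzylamine 1 mM; DAO putrescine 1 mM); fluor. rate 544/590 nm, 1-2 h; 4-param IC50.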

[2] = molecular target: T2, recombinant human MAO-A (monoamine oxidase-A) (Homo sapiens, UniProt P21397); experiment: Activity evaluation on recombinant human MAO-A (Amplex Red/HRP-coupled assay, 0.5 mM tyramine substrate); conditions: read-out: Inhibitory Activity (IC50, nM) MAO-A
T2 construct: purchased Sigma-Aldrich
T2 sequence (P21397 1-527): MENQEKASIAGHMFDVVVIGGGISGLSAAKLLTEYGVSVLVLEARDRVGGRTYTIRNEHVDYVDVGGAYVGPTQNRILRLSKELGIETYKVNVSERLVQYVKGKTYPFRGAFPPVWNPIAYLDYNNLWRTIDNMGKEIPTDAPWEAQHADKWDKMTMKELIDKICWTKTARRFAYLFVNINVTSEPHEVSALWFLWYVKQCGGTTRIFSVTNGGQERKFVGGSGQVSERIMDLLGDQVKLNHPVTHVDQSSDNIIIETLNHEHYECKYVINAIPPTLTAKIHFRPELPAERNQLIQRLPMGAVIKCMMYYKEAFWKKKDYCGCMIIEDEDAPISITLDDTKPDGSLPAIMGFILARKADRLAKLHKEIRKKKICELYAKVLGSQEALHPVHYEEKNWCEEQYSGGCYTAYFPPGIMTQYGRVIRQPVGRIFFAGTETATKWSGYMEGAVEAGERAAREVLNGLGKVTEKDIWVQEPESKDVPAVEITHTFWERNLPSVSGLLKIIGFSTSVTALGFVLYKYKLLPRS
Method in brief: as §1

[3] = molecular target: T3, recombinant human MAO-B (monoamine oxidase-B) (Homo sapiens, UniProt P27338); experiment: Activity evaluation on recombinant human MAO-B (Amplex Red/HRP-coupled assay, 1 mM benzylamine substrate); conditions: read-out: Inhibitory Activity (IC50, nM) MAO-B
T3 construct: purchased Sigma-Aldrich
T3 sequence (P27338 1-520): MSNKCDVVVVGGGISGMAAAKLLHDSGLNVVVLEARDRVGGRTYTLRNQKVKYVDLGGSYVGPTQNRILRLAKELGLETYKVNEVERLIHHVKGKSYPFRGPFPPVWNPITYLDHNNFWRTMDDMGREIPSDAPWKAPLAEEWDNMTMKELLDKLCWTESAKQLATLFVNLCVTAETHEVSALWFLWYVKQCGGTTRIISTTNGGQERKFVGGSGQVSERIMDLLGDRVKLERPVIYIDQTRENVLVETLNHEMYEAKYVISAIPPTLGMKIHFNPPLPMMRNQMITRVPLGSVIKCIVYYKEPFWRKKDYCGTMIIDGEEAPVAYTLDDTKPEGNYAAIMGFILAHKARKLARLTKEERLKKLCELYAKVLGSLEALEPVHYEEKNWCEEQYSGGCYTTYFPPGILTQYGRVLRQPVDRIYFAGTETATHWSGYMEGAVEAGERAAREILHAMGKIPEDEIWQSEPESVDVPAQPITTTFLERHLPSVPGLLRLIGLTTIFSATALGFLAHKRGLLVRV
Method in brief: as §1

[4] = molecular target: T4, recombinant human VAP-1 (Homo sapiens, UniProt Q16853); experiment: Activity evaluation on recombinant human VAP-1 (Amplex Red/HRP-coupled hydrogen peroxide assay, benzylamine substrate); conditions: read-out: Inhibitory Activity (IC50, nM) human VAP-1
T4 construct: purchased R&D systems
T4 sequence (Q16853 1-763): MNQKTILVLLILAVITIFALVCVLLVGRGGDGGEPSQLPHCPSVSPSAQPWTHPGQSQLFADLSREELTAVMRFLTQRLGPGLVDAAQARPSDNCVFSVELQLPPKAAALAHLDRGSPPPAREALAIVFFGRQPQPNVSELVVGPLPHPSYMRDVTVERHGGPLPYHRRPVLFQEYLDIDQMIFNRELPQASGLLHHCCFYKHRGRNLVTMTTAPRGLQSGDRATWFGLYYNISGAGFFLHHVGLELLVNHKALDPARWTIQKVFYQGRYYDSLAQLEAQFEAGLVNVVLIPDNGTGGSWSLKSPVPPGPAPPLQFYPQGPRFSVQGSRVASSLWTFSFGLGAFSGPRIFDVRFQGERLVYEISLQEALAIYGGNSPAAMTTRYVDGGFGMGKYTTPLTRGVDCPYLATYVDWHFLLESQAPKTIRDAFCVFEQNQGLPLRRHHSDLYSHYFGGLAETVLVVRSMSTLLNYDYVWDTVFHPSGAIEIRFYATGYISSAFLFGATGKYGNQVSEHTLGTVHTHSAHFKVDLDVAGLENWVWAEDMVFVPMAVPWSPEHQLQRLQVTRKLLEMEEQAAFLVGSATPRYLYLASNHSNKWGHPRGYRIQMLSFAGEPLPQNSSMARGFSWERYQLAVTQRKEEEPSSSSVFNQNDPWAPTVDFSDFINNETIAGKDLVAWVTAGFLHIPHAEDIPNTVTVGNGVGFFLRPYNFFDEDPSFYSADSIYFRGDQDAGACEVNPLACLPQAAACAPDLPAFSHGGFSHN
Method in brief: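 Hydrogen peroxide from benzylamine (1 mM) oxidation by human recombinant VAP-1 detected via HRP-coupled Amplex Red (200 uM) fluorescence, kinetic over 1–2 h. Enzyme and compound preincubated 30 min at 37 °C, pH 7.4 phosphate; 8-point dose response, signal-rate decrease versus DMSO control fitted to four-parameter logistic for IC50.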

[5] = recombinant human VAP-1, benzylamine substrate
[6] = recombinant human VAP-1, 30 min preincubation at 37° C., 1 mM benzylamine

SMILES | IC50 ([1]; 1 mM putrescine substrate) [nM] | IC50 ([2]; 0.5 mM tyramine substrate) [nM] | IC50 ([3]; 1 mM benzylamine substrate) [nM] | IC50 [4, 5] [nM] | IC50 ([1]; 1 mM putrescine) [nM] | IC50 ([2]; 0.5 mM tyramine) [nM] | IC50 ([3]; 1 mM benzylamine) [nM] | IC50 [4, 6] [nM]
CS(=O)(=O)c1ccc(-c2ccc(Cn3cnn(CC(CN)=C(F)F)c3=O)cc2)cc1 [Example 265, 2-[2-(aminomethyl)-3,3-difluoro-allyl]-4-[[4-(4-methylsulfonylphenyl)phenyl]methyl]-1,2,4-triazol-3-one Trifluoroacetate] | > 100000 | > 100000 | > 100000 | 1.4 |  |  |  | 
NCC(Cn1ncn(Cc2ccc(-c3ccc(C(=O)N4CCOCC4)cc3)s2)c1=O)=C(F)F [Example 109, 2-[2-(aminomethyl)-3,3-difluoro-allyl]-4-[[5-(4-morpholine-4-carbonyl)phenyl]-2-thienyl]methyl]-1,2,4-triazol-3-one trifluoroacetate] |  |  |  |  | 84000 | > 100000 | > 100000 | 1.4
NCC(Cn1ncn(Cc2cc(-c3cnn(C(F)F)c3)cs2)c1=O)=C(F)F [Example 194, 2-[2-(aminomethyl)-3,3-difluoro-allyl]-4-[[4-[1-(difluoromethyl)pyrazol-4-yl]-2-thienyl]methyl]-1,2,4-triazol-3-one Trifluoroacetate] | 64000 | > 100000 | 9200 | 2.9 |  |  |  | 
CCn1cc(-c2csc(Cn3cnn(CC(CN)=C(F)F)c3=O)c2)cn1 [Example 153, 2-[2-(aminomethyl)-3,3-difluoro-allyl]-4-[[4-(1-ethylpyrazol-4-yl)-2-thienyl]methyl]-1,2,4-triazol-3-one Trifluoroacetate] |  |  |  |  | 36000 | > 100000 | 29000 | 1.3
CCn1cc(-c2cc(F)c(Cn3cnn(CC(CN)=C(F)F)c3=O)s2)cn1 [Example 302, 2-[2-(aminomethyl)-3,3-difluoro-allyl]-4-[[5-(1-ethylpyrazol-4-yl)-3-fluoro-2-thienyl]methyl]-1,2,4-triazol-3-one Trifluoroacetate] | 19500 | > 100000 | > 100000 | 1.1 |  |  |  | 
CS(=O)(=O)c1ccc(-c2ccccc2Cn2cnn(CC(CN)=C(F)F)c2=O)cc1 [Example 279, 2-[2-(aminomethyl)-3,3-difluoro-allyl]-4-[[2-(4-methylsulfonylphenyl)phenyl]methyl]-1,2,4-triazol-3-one Trifluoroacetate] | > 100000 | > 100000 | > 100000 | > 100 |  |  |  | 

More lines, now with the values ahead:

IC50 ([1]; 1 mM putrescine substrate) [nM] | IC50 ([2]; 0.5 mM tyramine substrate) [nM] | IC50 ([3]; 1 mM benzylamine substrate) [nM] | IC50 [4, 5] [nM] | IC50 ([1]; 1 mM putrescine) [nM] | IC50 ([2]; 0.5 mM tyramine) [nM] | IC50 ([3]; 1 mM benzylamine) [nM] | IC50 [4, 6] [nM] | SMILES
> 100000 | > 100000 | > 100000 | 8 |  |  |  |  | Cc1c(-c2ccc(N3CCNCC3)cc2)cccc1-n1cnn(CC(CN)=C(F)F)c1=O [Example 254, 2-[2-(aminomethyl)-3,3-difluoro-allyl]-4-[2-methyl-3-(4-piperazin-1-ylphenyl)phenyl]-1,2,4-triazol-3-one Ditrifluoroacetate]
41200 | > 100000 | 89900 | 0.5 |  |  |  |  | CCn1cc(-c2ccc3cc(Cn4cnn(CC(CN)=C(F)F)c4=O)sc3c2)cn1 [Example 204, 2-[2-(aminomethyl)-3,3-difluoro-allyl]-4-[[6-(1-ethylpyrazol-4-yl)benzothiophen-2-yl]methyl]-1,2,4-triazol-3-one Trifluoroacetate]
 |  |  |  | 1900 | > 100000 | > 100000 | 3.5 | NCC(Cn1ncn(-c2cccc(-c3ccc(N4CCNCC4)cc3)n2)c1=O)=C(F)F [Example 47, 2-[2-(aminomethyl)-3,3-difluoro-allyl]-4-[6-(4-piperazin-1-ylphenyl)-2-pyridyl]-1,2,4-triazol-3-one Ditrifluoroacetate]
 |  |  |  | 1700 | > 100000 | > 100000 | 2.2 | NCC(Cn1ncn(-c2cc(-c3ccc4c(c3)OCO4)ccn2)c1=O)=C(F)F [Example 58, 2-[2-(aminomethyl)-3,3-difluoro-allyl]-4-[4-(1,3-benzodioxol-5-yl)-2-pyridyl]-1,2,4-triazol-3-one Trifluoroacetate]
 |  |  |  | > 10000 | > 100000 | 41000 | 2.1 | NCC(Cn1ncn(Cc2ccc(C#Cc3cnc4c(c3)OCCN4)s2)c1=O)=C(F)F [Example 167, 2-[2-(aminomethyl)-3,3-difluoro-allyl]-4-[[5-[2-(3,4-dihydro-2H-pyrido[3,2-b][1,4]oxazin-7-yl)ethynyl]-2-thienyl]methyl]-1,2,4-triazol-3-one Ditrifluoroacetate]
14000 | > 100000 | 1600 | 0.5 |  |  |  |  | COc1ccc(-c2cnc(-n3cnn(CC(CN)=C(F)F)c3=O)c(C)c2)cn1 [Example 225, 2-[2-(aminomethyl)-3,3-difluoro-allyl]-4-[5-(6-methoxy-3-pyridyl)-3-methyl-2-pyridyl]-1,2,4-triazol-3-one Trifluoroacetate]
 |  |  |  | 13000 | > 100000 | 15000 | 0.1 | CN1C(=O)CCc2cc(-c3ccc(Cn4cnn(CC(CN)=C(F)F)c4=O)s3)ccc21 [Example 138, 6-[5-[[1-[2-(aminomethyl)-3,3-difluoro-allyl]-5-oxo-1,2,4-triazol-4-yl]methyl]-2-thienyl]-1-methyl-3,4-dihydroquinolin-2-one Trifluoroacetate]
